Measurements reported in publication PMC4680847 (Structure (London, England : 1993), 2015).
Substitutions are numbered along the chain they refer to. Where two headings read alike, the source gives them in different places.

Key:
Type in all cases: binding
[1] = biological target: T1, RNase A (Bos taurus, UniProt P61823); assay: ITC
T1 sequence (P61823 27-150): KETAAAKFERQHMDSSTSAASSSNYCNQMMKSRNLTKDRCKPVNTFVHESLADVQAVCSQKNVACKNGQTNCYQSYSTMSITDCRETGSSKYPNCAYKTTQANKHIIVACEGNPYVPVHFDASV

[2] = biological target: T2, RNase A (Bos taurus, UniProt P61823, A135G); assay: crystal structure
T2 sequence (P61823 27-150 A135G): T1 sequence (P61823 27-150) with A109G

[3] = biological target: T2, RNase A; assay: crystal structure; remark: listed apart in the source

Kd [1] [µM] | Kd [2] [µM] | Kd [3] [µM] | SMILES
105 ± 1 | 440 ± 26 |  | Nc1ncnc2c1ncn2[C@@H]1O[C@H](COP(=O)(O)O)[C@@H](O)[C@H]1O [5′-AMP]
67 ± 6 |  | 50 ± 8 | O=c1ccn([C@@H]2O[C@H](CO)[C@@H](OP(=O)(O)O)[C@H]2O)c(=O)[nH]1 [3′-UMP]
